pIC50: −log10 of the molar value.
How the values were obtained:
[1] = Binding affinity to heme in aqueous solution
[2] = test system: Plasmodium falciparum; assay: Antimalarial activity against Plasmodium falciparum D6 in MSF assay; assay type: functional, organism-based
[3] = test system: Plasmodium falciparum; assay: Antimalarial activity against Plasmodium falciparum W2 in MSF assay; assay type: functional, organism-based

SMILES | Ka [1] | pIC50 [2] | pIC50 [3]
CCN(CC)CCCCCOc1ccc2c(=O)c3ccc(OCCCCCN(CC)CC)cc3oc2c1 | 8.2 10^5/M | 6.74 | 6.92
O[C@@H](c1cc(C(F)(F)F)nc2c(C(F)(F)F)cccc12)[C@H]1CCCCN1 [MEFLOQUINE] | 0.1 10^5/M | 8.23 | 9.15
CCN(CC)CCCCCOc1ccc2c(=O)c3ccc(OCCCCCN(CC)CC)c(F)c3oc2c1F | 0.6 10^5/M | 7.03 | 6.82
C=CC1CN2CC[C@H]1C[C@H]2[C@H](O)c1ccnc2ccc(OC)cc12 (single isomer, unassigned) [QUININE] | 0.2 10^5/M | 7.96 | 7.22

From ChEMBL document CHEMBL1141639, “Synthesis and heme-binding correlation with antimalarial activity of 3,6-bis-(omega-N,N-diethylaminoamyloxy)-4,5-difluoroxanthone” (Bioorg Med Chem, 2008)
